For 36 compounds, melting point results are on record in US7291730B2, “Pyrimidine compounds and their use” (Sumitomo Chemical Company, Limited, priority 2000, dated 2007).

SMILES strings stand for the structures.

With `CC#CCOc1cc(OCC#CC)ncn1` [present compound (1), 4,6-bis(2-butynyloxy)pyrimidine], the melting point (commonly the temperature of the solid-liquid transition) is 82.9 °C.
Consider `CC#CCOc1cc(Oc2ccc(Cl)cc2F)ncn1` [present compound (4), 4-(2-butynyloxy)-6-(4-chloro-2-fluorophenoxy)pyrimidine], for which the melting point amounted to 117.7 °C.
The value for `CC#CCOc1cc(OCC#CCC)ncn1` [present compound (6), 4-(2-butynyloxy)-6-(2-pentynyloxy)pyrimidine] was 67.4 °C; that for `CC#CCOc1cc(Oc2ccc(F)c(F)c2)ncn1` [present compound (10), 4-(2-butynyloxy)-6-(3,4-difluorophenoxy)pyrimidine] was 109.7 °C.
In the case of `C#CCOc1cc(Oc2ccc(Cl)cc2)ncn1` [present compound (14), 4-(4-chlorophenoxy)-6-(2-propynyloxy)pyrimidine], the melting point came to 100.3 °C.
Turning to `C#CCOc1cc(Oc2cccc(Cl)c2)ncn1` [present compound (15), 4-(3-chlorophenoxy)-6-(2-propynyloxy)pyrimidine], the melting point was 71.6 °C.
In turn, `C#CCOc1cc(Oc2ccccc2Cl)ncn1` [present compound (19), 4-(2-chlorophenoxy)-6-(2-propynyloxy)pyrimidine] showed a melting point of 76.2 °C.
The value for `C#CCOc1cc(Oc2c(F)cccc2F)ncn1` [present compound (21), 4-(2,6-difluorophenoxy)-6-(2-propynyloxy)pyrimidine] was 67.2 °C; that for `C#CCOc1cc(Oc2ccc(Cl)cc2Cl)ncn1` [present compound (22), 4-(2,4-dichlorophenoxy)-6-(2-propynyloxy)pyrimidine] was 106.7 °C; that for `C#CCOc1cc(Oc2ccc(Cl)c(Cl)c2)ncn1` [present compound (23), 4-(3,4-dichlorophenoxy)-6-(2-propynyloxy)pyrimidine] was 109.2 °C.
The value for `C#CCOc1cc(Oc2cc(Cl)cc(Cl)c2)ncn1` [present compound (24), 4-(3,5-dichlorophenoxy)-6-(2-propynyloxy)pyrimidine] was 136.5 °C; that for `C#CCOc1cc(Oc2cc(Cl)ccc2Cl)ncn1` [present compound (25), 4-(2,5-dichlorophenoxy)-6-(2-propynyloxy)pyrimidine] was 87.7 °C.
`C#CCOc1cc(Oc2cccc(Cl)c2Cl)ncn1` [present compound (26), 4-(2,3-dichlorophenoxy)-6-(2-propynyloxy)pyrimidine]: the melting point was 91.9 °C.
`C#CCOc1cc(Oc2ccccc2C)ncn1` [present compound (27), 4-(2-methylphenoxy)-6-(2-propynyloxy)pyrimidine] came in with a melting point of 64.8 °C.
The value for `C#CCOc1cc(Oc2ccc(OC)cc2)ncn1` [present compound (31), 4-(4-methoxyphenoxy)-6-(2-propynyloxy)pyrimidine] was 72 °C; that for `CC#CCOc1cc(Oc2c(F)cccc2F)ncn1` [present compound (33), 4-(2-butynyloxy)-6-(2,6-difluorophenoxy)pyrimidine] was 79.8 °C; that for `C#CCOc1cc(Oc2ccc(F)cc2)ncn1` [present compound (35), 4-(4-fluorophenoxy)-6-(2-propynyloxy)pyrimidine] was 81.4 °C.
Compound `C#CCOc1cc(-c2ccccc2)ncn1` [present compound (37), 4-phenyl-6-(2-propynyloxy)pyrimidine] returned a melting point of 65.1 °C.
The value for `CC#CCOc1cc(-c2ccccc2)ncn1` [present compound (38), 4-(2-butynyloxy)-6-phenylpyrimidine] was 59.6 °C; that for `CC#CCOc1cc(Oc2cccc(C#N)c2)ncn1` [present compound (40), 4-(2-butynyloxy)-6-(3-cyanophenoxy)pyrimidine] was 121.2 °C; that for `CC#CCOc1cc(Oc2ccc(C#N)cc2)ncn1` [present compound (41), 4-(2-butynyloxy)-6-(4-cyanophenoxy)pyrimidine] was 162 °C.
The value for `CC#CCOc1cc(-c2ccc(F)cc2F)ncn1` [present compound (44), 4-(2-butynyloxy)-6-(2,4-difluorophenyl)pyrimidine] was 63.9 °C; that for `CC#CCOc1cc(Oc2c(F)cc(F)cc2F)ncn1` [present compound (45), 4-(2-butynyloxy)-6-(2,4,6-trifluorophenoxy)pyrimidine] was 60.3 °C; that for `CC#CCOc1cc(Oc2ccc(F)c(C(F)(F)F)c2)ncn1` [present compound (48), 4-(2-butynyloxy)-6-(4-fluoro-3-trifluoromethylphenoxy)pyrimidine] was 90.1 °C.
Under `C#CCOc1cc(Oc2ccccc2)ncn1` [present compound (51), 4-phenoxy-6-(2-propynyloxy)pyrimidine] stands 71.1 °C; under `C#CCOc1cc(OCC#C)ncn1` [present compound (52), 4,6-bis(2-propynyloxy)pyrimidine], 74 °C; under `CC#CCOc1cc(Nc2ccccc2)ncn1` [present compound (53), 4-anilino-6-(2-butynyloxy)pyrimidine], 159.3 °C.
Take `CC#CCOc1cc(Oc2cccc(F)c2)ncn1` [present compound (61), 4-(3-fluorophenoxy)-6-(2-butynyloxy)pyrimidine]: the melting point was 60.1 °C.
On to `CC#CCOc1cc(Oc2ccc(F)cc2)ncn1` [present compound (62), 4-(4-fluorophenoxy)-6-(2-butynyloxy)pyrimidine], for which the melting point worked out at 115.8 °C.
The value for `CC#CCOc1cc(Oc2ccc([N+](=O)[O-])cc2F)ncn1` [present compound (65), 4-(2-fluoro-4-nitrophenoxy)-6-(2-butynyloxy)pyrimidine] was 132.1 °C; that for `CC#CCOc1cc(N(C)c2cccc(F)c2F)ncn1` [present compound (66), 4-(N-methyl-N-(2,3-difluorophenyl)amino)-6-(2-butynyloxy)pyrimidine] was 77.5 °C; that for `CC#CCOc1cc(Oc2cccc(C(C)=O)c2)ncn1` [present compound (71), 4-(2-butynyloxy)-6-(3-acetylphenoxy)pyrimidine] was 94 °C.
Turning to `CC#CCOc1cc(Nc2cccc(F)c2F)ncn1` [present compound (73), 4-(N-(2,3-difluorophenyl)amino)-6-(2-butynyloxy)pyrimidine], the melting point is 147.6 °C.
Under `CC#CCOc1cc(OCc2cccc(F)c2F)ncn1` [present compound (76), 4-(2,3-difluorobenzyloxy)-6-(2-butynyloxy)pyrimidine] stands 84.9 °C; under `CC#CCOc1cc(Cc2c(F)cccc2F)ncn1` [present compound (80), 4-(2,6-difluorobenzyl)-6-(2-butynyloxy)pyrimidine], 57.6 °C; under `CC#CCOc1cc(N(C)c2ccccc2)ncn1` [present compound (93), 4-(N-methyl-N-phenylamino)-6-(2-butynyloxy)pyrimidine], 57.6 °C.
